# Data from patent US6933304B2, “Heteroarylalkanoic acids as integrin receptor antagonists” (Pharmacia Corporation, priority 2000, dated 2005).
# Target: T1, Human vitronectin receptor αVβ3 (Homo sapiens, UniProt P05106+P06756)
# T1 construct: Human vitronectin receptors αVβ3 and αVβ5 were purified from human placenta; from tissue; host or cells: human placenta
# Assay: Vitronectin adhesion assay (solid phase receptor assay)
# Assay type: binding
# Settings: positive control included on each plate; read-out: IC50 αVβ3 antagonist (positive control)
# Method: Human vitronectin receptors αVβ3 and αVβ5 were purified from human placenta as previously described [Pytela et al., Methods in Enzymology, 144:475-489 (1987)]. Human vitronectin was purified from fresh frozen plasma as previously described [Yatohgo et al., Cell Structure and Function, 13:281-292 (1988)]. Biotinylated human vitronectin was prepared by coupling NHS-biotin from Pierce Chemical Company (Rockford, Ill.) to purified vitronectin as previously described [Charo et al., J. Biol. Chem., 266(3):1415-1421 (1991)]. Assay buffer, OPD substrate tablets, and RIA grade BSA were obtained from Sigma (St. Louis, Mo.). Anti-biotin antibody was obtained from Sigma (St. Louis, Mo.). Nalge Nunc-Immuno microtiter plates were obtained from Nalge Company (Rochester, N.Y.).
# This assay was essentially the same as previously reported [Niiya et al., Blood, 70:475-483 (1987)]. […] The plate was read with a microtiter plate reader at a wavelength of 450 nm and when the maximum-binding control wells reached an absorbance of about 1.0, the final A450 were recorded for analysis. The data were analyzed using a macro written for use with the EXCEL spreadsheet program. The mean, standard deviation, and % CV were determined for duplicate concentrations. […]
# T1 sequence (P06756 31-889 limits assumed): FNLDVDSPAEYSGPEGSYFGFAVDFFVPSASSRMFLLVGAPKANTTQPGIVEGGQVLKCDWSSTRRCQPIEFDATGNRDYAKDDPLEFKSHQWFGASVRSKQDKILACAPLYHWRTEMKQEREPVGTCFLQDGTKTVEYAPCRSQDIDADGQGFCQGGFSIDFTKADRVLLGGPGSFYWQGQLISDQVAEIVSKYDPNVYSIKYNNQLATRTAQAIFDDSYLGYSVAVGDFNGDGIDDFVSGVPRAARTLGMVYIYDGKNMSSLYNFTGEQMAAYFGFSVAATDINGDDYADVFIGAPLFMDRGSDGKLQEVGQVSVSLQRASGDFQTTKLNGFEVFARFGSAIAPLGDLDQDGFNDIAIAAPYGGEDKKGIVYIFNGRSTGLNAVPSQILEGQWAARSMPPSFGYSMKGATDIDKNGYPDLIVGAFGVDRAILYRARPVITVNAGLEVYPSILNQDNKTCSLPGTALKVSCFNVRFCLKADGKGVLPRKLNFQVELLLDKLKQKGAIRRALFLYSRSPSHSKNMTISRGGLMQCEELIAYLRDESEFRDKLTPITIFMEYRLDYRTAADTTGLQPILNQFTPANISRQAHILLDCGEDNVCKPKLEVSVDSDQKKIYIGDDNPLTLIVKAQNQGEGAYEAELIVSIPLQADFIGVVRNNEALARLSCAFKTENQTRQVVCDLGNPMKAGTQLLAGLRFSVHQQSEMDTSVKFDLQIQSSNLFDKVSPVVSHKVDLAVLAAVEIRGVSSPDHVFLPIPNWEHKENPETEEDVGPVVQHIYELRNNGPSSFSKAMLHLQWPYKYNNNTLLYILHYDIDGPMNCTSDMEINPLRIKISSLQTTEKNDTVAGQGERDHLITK
# T1 sequence (P06756 891-1048 partner limits assumed): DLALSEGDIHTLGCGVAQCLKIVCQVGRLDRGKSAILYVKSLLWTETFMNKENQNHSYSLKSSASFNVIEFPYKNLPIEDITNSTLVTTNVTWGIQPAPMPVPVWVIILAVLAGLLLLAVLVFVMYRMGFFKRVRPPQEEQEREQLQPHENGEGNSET
# T1 sequence (P05106 27-788): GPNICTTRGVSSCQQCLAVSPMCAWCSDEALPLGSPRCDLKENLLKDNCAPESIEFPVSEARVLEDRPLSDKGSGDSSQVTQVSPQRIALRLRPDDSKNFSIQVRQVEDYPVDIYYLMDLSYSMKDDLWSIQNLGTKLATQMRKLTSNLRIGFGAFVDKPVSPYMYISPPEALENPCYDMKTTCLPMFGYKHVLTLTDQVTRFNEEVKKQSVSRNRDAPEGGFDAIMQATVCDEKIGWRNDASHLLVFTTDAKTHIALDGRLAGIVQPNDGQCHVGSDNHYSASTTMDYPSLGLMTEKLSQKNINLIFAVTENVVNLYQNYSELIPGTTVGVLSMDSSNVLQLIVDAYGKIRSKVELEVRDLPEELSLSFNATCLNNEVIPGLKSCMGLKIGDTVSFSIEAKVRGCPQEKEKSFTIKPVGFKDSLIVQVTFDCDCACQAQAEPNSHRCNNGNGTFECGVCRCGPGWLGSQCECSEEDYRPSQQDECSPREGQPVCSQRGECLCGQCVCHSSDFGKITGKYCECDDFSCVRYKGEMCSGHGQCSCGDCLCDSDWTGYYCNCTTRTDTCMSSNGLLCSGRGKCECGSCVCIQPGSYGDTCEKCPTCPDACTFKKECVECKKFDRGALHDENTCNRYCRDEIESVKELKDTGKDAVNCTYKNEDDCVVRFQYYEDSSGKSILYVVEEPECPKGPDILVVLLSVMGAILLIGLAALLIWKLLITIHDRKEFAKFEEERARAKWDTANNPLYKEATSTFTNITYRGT
substance,measurement,value
β-[[2-[[5-[(aminoiminomethyl)amino]-1-oxopentyl]amino]-1-oxoethyl]amino]-3-pyridinepropanoic acid,IC50,3 to 10 nM
